# Laboratory results taken from patent US20230146455A1, “TREATMENT OF INFLAMMATORY DISEASES WITH PEPTIDES AND PHARMACEUTICAL COMPOSITIONS” (Yuyu Pharma, Inc., priority 2020, published 2023).
# “And” between values parts separate entries of the source, which are not always exact repeats. Equal entries are not always repeated. Where a SMILES comes first, the peptide text is derived from it. [ ]: non-standard residue; d: D form. Hyp = O=C(O)[C@@H]1C[C@@H](O)CN1
# Assays:
# Format in all cases: cell-based, human
# IL-8/CXCL8 = assay: Example 8 main study Luminex, LPS hPBMCs: IL-8/CXCL8; conditions: for IL-8/CXCL8 Concentration: single replicates (1st, 2nd, 3rd)
# Description: (§1) Human PBMCs were pretreated with YY-101, YDE-011, YDE-043 or reference compound; Xiidra® at various concentration (ranging from […] to 500 nM) for 2 h before stimulation. An equal volume of 0.5% DMSO was used as a vehicle control. Then, the cells were treated with LPS at 5 ug/ml, which was selected based on the pilot study. The supernatants from treated cells were harvested at 24 h and placed in a 96 well for Luminex cytokine & chemokine profiling using a Luminex 200 multiplex assay (Luminex; R&D system, USA).
# (§2) The main study arm with triplicate wells per group in a 24-well plate: • 1. Blank • 2. PBMC: 0.5% DMSO • 3. PBMC+LPS (5 ug/ml) • 4. PBMC+YY-101 500 nM • 5. PBMC+YY-101 50 nM • 6. PBMC+YY-101 5 nM • 7. PBMC+YY-101 0.5 nM • 8. PBMC+LPS (5 ug/ml)+Xiidra® 500 nM • 9. PBMC+LPS (5 ug/ml)+Xiidra® 50 nM • 10. PBMC+LPS (5 ug/ml)+Xiidra® 5 nM • 11. PBMC+LPS (5 ug/ml)+Xiidra® 0.5 nM • 12. PBMC+LPS (5 ug/ml)+Xiidra® 0.05 nM • 13. PBMC+LPS (5 ug/ml)+Xiidra® 0.005 nM • 14. PBMC+LPS (5 ug/ml)+YY-101 500 nM • 15. PBMC+LPS (5 ug/ml)+YY-101 50 nM • 16. PBMC+LPS (5 ug/ml)+YY-101 5 nM • 17. PBMC+LPS (5 ug/ml)+YY-101 0.5 nM • 18. PBMC+LPS (5 ug/ml)+YY-101 0.05 nM • 19. PBMC+LPS (5 ug/ml)+YY-101 0.005 nM • 20. PBMC+LPS (5 ug/ml)+YDE-011 500 nM • 21. PBMC+LPS (5 ug/ml)+YDE-011 50 nM • 22. PBMC+LPS (5 ug/ml)+YDE-011 5 nM • 23. PBMC+LPS (5 ug/ml)+YDE-011 0.5 nM • 24. PBMC+LPS (5 ug/ml)+YDE-011 0.05 nM • 25. PBMC+LPS (5 ug/ml)+YDE-011 0.005 nM • 26. PBMC+LPS (5 ug/ml)+YDE-043 500 nM • 27. PBMC+LPS (5 ug/ml)+YDE-043 50 nM • 28. PBMC+LPS (5 ug/ml)+YDE-043 5 nM • 29. PBMC+LPS (5 ug/ml)+YDE-043 0.5 nM • 30. PBMC+LPS (5 ug/ml)+YDE-043 0.05 nM • 31. PBMC+LPS (5 ug/ml)+YDE-043 0.005 nM
# (§3) Multiplex assay was used to measure 30 cytokines and chemokines. The 1:200 diluted cell supernatant and serial dilution of the standard were dispensed into a 96 well plate at 50 ul/well. Then, the pre-mixed cocktail of antibody-coated magnetic beads was dispensed at 50 ul/well and incubated at room temperature for 2 h in a horizontal orbital microplate shaker at 800±500 rpm. The beads were washed using a magnetic device to prevent loss. The biotin-antibody was dispensed in 50 ul of each well and incubated at room temperature for 1 h in a shaker at 800±500 rpm. After washing, streptavidin-PE was added at 50 ul/well and incubated at room temperature for 30 min in a shaker under the same conditions. Finally, after washing, wash buffer (100 ul/well) was added to the plate and incubated in a shaker for 2 min. The Luminex™ 200 setting were set according to the manufacturer's protocol. The data was calculated with a standard five-parameter logistic nonlinear regression analysis of the data (xPonent software 4.2, USA). Results were presented as concentration (ng/ml or pg/ml).
# IL-10 = assay: Example 8 main study Luminex, LPS hPBMCs: IL-10; conditions: for IL-10 Concentration: individual replicates; for IL-10 Concentration (pg/ml), Mean: mean of replicates
# Description: as §1, §2, §3
# IL-1 alpha/IL-1F1 = assay: Example 8 main study Luminex, LPS hPBMCs: IL-1 alpha/IL-1F1
# Description: as §1, §2, §3
# [1] = PBMC + LPS(5 ug/ml) + test article 0.005 nM
# [2] = PBMC + LPS(5 ug/ml) + test article 0.05 nM
# [3] = PBMC + LPS(5 ug/ml) + test article 0.5 nM
# [4] = PBMC + LPS(5 ug/ml) + test article 5 nM
# [5] = PBMC + LPS(5 ug/ml) + test article 50 nM
# [6] = PBMC + LPS(5 ug/ml) + test article 500 nM
# [7] = at as low as 5 μM, LPS 5 ug/mL 24 hrs
# [8] = PBMC + LPS(5 ug/ml) + test article 0.005 nM, Mean
# [9] = PBMC + LPS(5 ug/ml) + test article 0.005 nM, individual replicates
# [10] = PBMC + LPS(5 ug/ml) + test article 0.05 nM, Mean
# [11] = PBMC + LPS(5 ug/ml) + test article 0.05 nM, individual replicates
# [12] = PBMC + LPS(5 ug/ml) + test article 0.5 nM, Mean
# [13] = PBMC + LPS(5 ug/ml) + test article 0.5 nM, individual replicates
# [14] = PBMC + LPS(5 ug/ml) + test article 5 nM, Mean
# [15] = PBMC + LPS(5 ug/ml) + test article 5 nM, individual replicates
# [16] = PBMC + LPS(5 ug/ml) + test article 50 nM, Mean
# [17] = PBMC + LPS(5 ug/ml) + test article 50 nM, individual replicates
# [18] = PBMC + LPS(5 ug/ml) + test article 500 nM, Mean
# [19] = PBMC + LPS(5 ug/ml) + test article 500 nM, individual replicates
compound,measurement,setting,value
CC(C)C[C@H](NC(=O)CNC(=O)[C@H](CC(C)C)NC(=O)[C@H](CCC(N)=O)NC(=O)CNC(=O)[C@@H]1C[C@@H](O)CN1)C(=O)N[C@@H](C)C(=O)NCC(=O)N1CCC[C@H]1C(=O)N[C@@H](CCCCN)C(=O)O [YDE-011] (H-[Hyp]GQLGLAGPK-OH),"IL-8/CXCL8 Concentration, Mean",IL-8/CXCL8; [1],54720.2 pg/mL
same,IL-8/CXCL8 Concentration,IL-8/CXCL8; [1],55905.6 pg/mL and 51994.7 pg/mL and 56260.2 pg/mL
same,"IL-8/CXCL8 Concentration, Mean",IL-8/CXCL8; [2],61143.7 pg/mL
same,IL-8/CXCL8 Concentration,IL-8/CXCL8; [2],61568.6 pg/mL and 60755.7 pg/mL and 61106.8 pg/mL
same,"IL-8/CXCL8 Concentration, Mean",IL-8/CXCL8; [3],52309.1 pg/mL
same,IL-8/CXCL8 Concentration,IL-8/CXCL8; [3],52927.0 pg/mL and 52269.8 pg/mL and 51730.5 pg/mL
same,"IL-8/CXCL8 Concentration, Mean",IL-8/CXCL8; [4],46534.3 pg/mL
same,IL-8/CXCL8 Concentration,IL-8/CXCL8; [4],45587.7 pg/mL and 43107.6 pg/mL and 50907.7 pg/mL
same,"IL-8/CXCL8 Concentration, Mean",IL-8/CXCL8; [5],46922.1 pg/mL
same,IL-8/CXCL8 Concentration,IL-8/CXCL8; [5],54235.8 pg/mL and 55272.7 pg/mL and 31257.8 pg/mL
same,"IL-8/CXCL8 Concentration, Mean",IL-8/CXCL8; [6],49501.9 pg/mL
same,IL-8/CXCL8 Concentration,IL-8/CXCL8; [6],66288.2 pg/mL and 31741.3 pg/mL and 50476.2 pg/mL
same,LPS-induced IL-8 (in words),IL-8/CXCL8; [7],significantly reduced
same,IL-10 Concentration,IL-10; [1],624.7 pg/mL and 409.5 pg/mL and 531.7 pg/mL
same,"IL-10 Concentration (pg/ml), Mean",IL-10; [1],521.9 pg/mL
same,IL-10 Concentration,IL-10; [2],729.2 pg/mL and 611.5 pg/mL and 651.0 pg/mL
same,"IL-10 Concentration (pg/ml), Mean",IL-10; [2],663.9 pg/mL
same,IL-10 Concentration,IL-10; [3],409.5 pg/ml (2×) and 297.6 pg/ml
same,"IL-10 Concentration (pg/ml), Mean",IL-10; [3],372.2 pg/mL
same,IL-10 Concentration,IL-10; [4],181.1 pg/mL and 210.8 pg/mL and 381.9 pg/mL
same,"IL-10 Concentration (pg/ml), Mean",IL-10; [4],257.9 pg/mL
same,IL-10 Concentration,IL-10; [5],518.2 pg/mL and 845.0 pg/mL and <2.59 pg/mL
same,"IL-10 Concentration (pg/ml), Mean",IL-10; [5],681.6 pg/mL
same,IL-10 Concentration,IL-10; [6],883.3 pg/mL and <2.59 pg/mL and 225.5 pg/mL
same,"IL-10 Concentration (pg/ml), Mean",IL-10; [6],554.4 pg/mL
same,LPS-induced IL-10 (in words),IL-10; [7],significantly reduced
same,IL-1 alpha/IL-1F1 Concentration,IL-1 alpha/IL-1F1; [8],510.2 pg/mL
same,IL-1 alpha/IL-1F1 MFI,IL-1 alpha/IL-1F1; [8],31.2
same,IL-1 alpha/IL-1F1 Concentration,IL-1 alpha/IL-1F1; [9],595.1 pg/mL and 460.1 pg/mL and 475.3 pg/mL
same,IL-1 alpha/IL-1F1 MFI,IL-1 alpha/IL-1F1; [9],34.0 and 29.5 and 30.0
same,IL-1 alpha/IL-1F1 Concentration,IL-1 alpha/IL-1F1; [10],510.3 pg/mL
same,IL-1 alpha/IL-1F1 MFI,IL-1 alpha/IL-1F1; [10],31.2
same,IL-1 alpha/IL-1F1 Concentration,IL-1 alpha/IL-1F1; [11],535.6 pg/mL and 550.5 pg/mL and 444.9 pg/mL
same,IL-1 alpha/IL-1F1 MFI,IL-1 alpha/IL-1F1; [11],32.0 and 32.5 and 29.0
same,IL-1 alpha/IL-1F1 Concentration,IL-1 alpha/IL-1F1; [12],403.8 pg/mL
same,IL-1 alpha/IL-1F1 MFI,IL-1 alpha/IL-1F1; [12],27.7
same,IL-1 alpha/IL-1F1 Concentration,IL-1 alpha/IL-1F1; [13],429.6 pg/mL and 383.2 pg/mL and 398.7 pg/mL
same,IL-1 alpha/IL-1F1 MFI,IL-1 alpha/IL-1F1; [13],28.5 and 27.0 and 27.5
same,IL-1 alpha/IL-1F1 Concentration,IL-1 alpha/IL-1F1; [14],324.6 pg/mL
same,IL-1 alpha/IL-1F1 MFI,IL-1 alpha/IL-1F1; [14],25.2
same,IL-1 alpha/IL-1F1 Concentration,IL-1 alpha/IL-1F1; [15],256.0 pg/mL and 288.4 pg/mL and 429.6 pg/mL
same,IL-1 alpha/IL-1F1 MFI,IL-1 alpha/IL-1F1; [15],23.0 and 24.0 and 28.5
same,IL-1 alpha/IL-1F1 Concentration,IL-1 alpha/IL-1F1; [16],278.0 pg/mL
same,IL-1 alpha/IL-1F1 MFI,IL-1 alpha/IL-1F1; [16],23.8
same,IL-1 alpha/IL-1F1 Concentration,IL-1 alpha/IL-1F1; [17],320.3 pg/mL and 84.2 pg/mL and 429.6 pg/mL
same,IL-1 alpha/IL-1F1 MFI,IL-1 alpha/IL-1F1; [17],25.0 and 18.0 and 28.5
same,IL-1 alpha/IL-1F1 Concentration,IL-1 alpha/IL-1F1; [18],275.3 pg/mL
same,IL-1 alpha/IL-1F1 MFI,IL-1 alpha/IL-1F1; [18],24.0
same,IL-1 alpha/IL-1F1 Concentration,IL-1 alpha/IL-1F1; [19],535.6 pg/mL and 1.9 pg/mL and 288.4 pg/mL
same,IL-1 alpha/IL-1F1 MFI,IL-1 alpha/IL-1F1; [19],32.0 and 16.0 and 24.0
